Consider 4 compounds from patent US20190030036A1, “PHOSPHODIESTERASE INHIBITOR TREATMENT” (Cyrano Therapeutics, Inc., priority 2013, published 2019).

The test system of one series is asthmatic patients. Briefly: sGaw after inhaled dry powder in asthmatic patients (Examples 5, 6). As to the method: To test this theory, asthmatic patients are enrolled in a dose escalating single blind study. On arrival to the clinic, subjects are allowed to rest for 20 minutes before baseline measurements of FEV1 (six recordings) and sGaw (five recordings) are made. Subjects receive a dry powder dispenser loaded with a dose of 2 mg theophylline or a dry powder carrier. […] After each inhalation, measurements of sGaw are made at 1, 3, 5, 10, 15, 20, 25, and 30 minutes.
On completion of the last recording, subjects inhale a 200 μg dose of salbutamol from a metered inhaler and a further measurement of sGaw is made after 15 minutes. Subjects are also monitored for coughing and are questioned about the taste of the drug.
Asthmatic patients are enrolled in a dose escalating single blind study. On arrival to the clinic, subjects are allowed to rest for 20 minutes before baseline measurements of FEV1 (six recordings) and sGaw (five recordings) are made. Subjects receive a dry powder dispenser loaded with a dose of 1 mg IBMX formulated as a dry powder or a dry powder carrier. […] After each inhalation, measurements of sGaw are made at 1, 3, 5, 10, 15, 20, 25, and 30 minutes.
On completion of the last recording, subjects inhale a 200 μg dose of salbutamol from a metered inhaler and a further measurement of sGaw made after 15 minutes. Subjects are also be monitored for coughing and are questioned about the taste of the drug.

A further series concerns PDE. The note with it: non-specific PDE inhibitor; cited from earlier work.
The test system of series [1] is subjects with a taste and/or smell disorder. Briefly: Taste and/or smell function after intranasal dosage units in a plume from a multi-dose nasal spray device (Examples 10-15). It is filed as in vivo, human. The note with it: once per day in each naris. From the text:
The improvements in taste and/or smell function are evidenced by a decrease in the detection threshold for at least one odorant and/or tastant, a decrease in the recognition threshold for at least one odorant and/or tastant, and/or an increase in a magnitude estimation for at least one odorant and/or tastant.

The next series has as its system patients with hyposmia. Briefly: Subjective overall change in smell function; open trial of oral theophylline. Conditions: cilostazol added to 600 mg or 800 mg of theophylline in patients who improved <5%. Type of series: in vivo, human. The protocol:
Independently, patients were also required to grade their ability to smell daily on a scale from 0-100, with 0 reflecting no overall smell function over a 24 hour period, 100 reflecting normal overall smell function over this period and numbers from 0-100 reflecting their estimation of their overall ability to smell odors over this period.
After determination of hyposmia, patients were treated in an open label, fixed design, controlled open trial. Patients were given an oral extended release theophylline in divided daily doses taken in the middle of breakfast and lunch. All patients were initially given 200 mg of theophylline; changes in this dose were made based upon subjective responses to therapy. If at a subsequent return visit, patients reported ≥5% subjective improvement in overall smell function, they continued on this same dose of theophylline and were reevaluated after four to six months of continued treatment. Results from any subsequent return from these improved patients were not included in any subsequent data report. All subsequent comparisons between treated and untreated patients were made only between those patients continuing in the study compared to their own measurements obtained in the untreated state. If patients reported <5% subjective improvement, their theophylline dose was increased by 200 mg daily and they were scheduled for retesting at the study site after two to four months at this new dosage. For patients that reported <5% improvement, this sequence continued until patients reached 800 mg of theophylline, at which time the study was considered completed.
Patients returned for reevaluation after two to four months of treatment. Measurements of blood serum theophylline were measured by a fluorescence polarization assay (Abbott, Chicago, Ill.). At this time, subjective changes in smell function were measured independently (compared to patient's memory of previous normal smell function monitored by use of the patients' daily measurements) using the scale from −100−0-+100 previously described. After independently recording their subjective responses, smell function was measured for all four odors with DT, RT, ME and H determined without recourse to prior measurements.
Subjective overall changes in smell acuity were reported by telephone and by FAX or email at two—four month intervals after treatment was initiated using the standardized form in which they measured daily changes in smell acuity using the −100−0-+100 scale as noted above. Using the same criteria noted above, if at their initial two—four month call-in they reported improvement in smell acuity of ≥5%, they continued at 200 mg and returned to the study site at four—six months on this treatment dose. If they reported improvement in smell acuity of <5% their dose of theophylline was increased to 400 mg for an additional two—four months and they then called the study site at the end of this period.

Broadly, the IC50 is the concentration that gives 50% inhibition.

In the case of `CC(C)Cn1c(=O)n(C)c(=O)c2[nH]cnc21` [IBMX, 3-isobutyl-1-methylxanthine], the “sGaw above the baseline measurement” value in the series with asthmatic patients (after 30 minutes, inhaled dry powder 1 mg IBMX) is reported as 20%. The taste and coughing entry in the series on asthmatic patients (human, in vivo) was “without the unpleasant taste or the induction of coughing”. In the series on asthmatic patients (inhaled dry powder 1 mg IBMX), the “increase in sGaw relative to 200 μg inhaled salbutamol” value is given as “comparable”; the “time until sGaw baseline is reached” value is “one and a half”. In the series with PDE, the IC50 is 2 to 50 µM.
`O=C1CCc2cc(OCCCCc3nnnn3C3CCCCC3)ccc2N1` [cilostazol]: the “taste and/or smell function” value in series [1] was “improvement in taste and/or smell function”. The “additional patients with improved smell function” value in the series on patients with hyposmia is reported as 15%.
Turning to `COc1ccc(Cc2nccc3cc(OC)c(OC)cc23)cc1OC` [papaverine], the “taste and/or smell function” value in series [1] is given as “improvement in taste and/or smell function”.
With `O=C(Nc1c(Cl)cncc1Cl)c1ccc(OC(F)F)c(OCC2CC2)c1` [roflumilast], in series [1], the “taste and/or smell function” value is “improvement in taste and/or smell function”.
